Measurements reported in patent publication US20250092002A1, “FLUORINATED CATIONIC LIPIDS FOR USE IN LIPID NANOPARTICLES” (Acuitas Therapeutics, Inc., priority 2021, published 2025).
Marks after values point to notes of the source that are not given here.

What was measured:
[1] = tested on: luciferase expression in the liver; assay: In vivo luciferase mRNA expression rodent model (liver luciferase after tail vein injection of mRNA-LNP); design: species or system mice; conditions: for Liver Luc (ng luc/g liver), determined at 0.3 mg/kg: 0.3 mg/kg (footnote *); for Liver Luc (ng luc/g liver), determined at 0.3 mg/kg / Liver Luc (ng luc/g liver), determined at 1.0 mg/kg / Liver Luc @ 0.5 mg/kg (ng luc/g liver): tail vein injection, liver 4 hours after administration; for efficacy toward activation of the Luciferase mRNA expression as compared with non-fluorinated analogue: 0.3 mg/kg and 1.0 mg/kg, versus I-5 analogue and I-11 analogue respectively; for Liver Luc @ 0.5 mg/kg (ng luc/g liver): 0.5 mg mRNA/kg
Experimental: Lipid nanoparticles were prepared and tested according to the general procedures described in PCT Pub. Nos. WO 2015/199952 and WO 2017/004143, the full disclosures of which are incorporated herein by reference. Briefly, cationic lipid, DSPC, cholesterol and PEG-lipid were solubilized in ethanol at a molar ratio of about 50:10:38.5:1.5 or about 47.5:10:40.7:1.8. Lipid nanoparticles (LNP) were prepared at a total lipid to mRNA weight ratio of approximately 10:1 to 40:1. The mRNA is diluted to 0.2 mg/mL in 10 to 50 mM citrate or acetate buffer, pH 4. Syringe pumps were used to mix the ethanolic lipid solution with the mRNA aqueous solution at a ratio of about 1:5 to 1:3 (vol/vol) with total flow rates above 15 mL/min. The ethanol was then removed and the external buffer replaced with PBS by dialysis. Finally, the lipid nanoparticles were filtered through a 0.2 µm pore sterile filter. Lipid nanoparticle particle size was approximately 55-95 nm diameter, and in some instances approximately 70-90 nm diameter as determined by quasi-elastic light scattering using a Malvern Zetasizer Nano ZS (Malvern, UK).
Studies were performed in 6-8 week old female C57BL/6 mice (Charles River) or 8-10 week old CD-1 (Harlan) mice (Charles River) according to guidelines established by an institutional animal care committee (ACC) and the Canadian Council on Animal Care (CCAC). Varying doses of mRNA-lipid nanoparticle were systemically administered by tail vein injection and animals euthanized at a specific time point (e.g., 4 hours) post-administration. Liver and spleen were collected in pre-weighed tubes, weights determined, immediately snap frozen in liquid nitrogen and stored at −80° C. until processing for analysis.
For liver, approximately 50 mg was dissected for analyses in a 2 mL FastPrep tubes (MP Biomedicals, Solon OH). ¼″ ceramic sphere (MP Biomedicals) is added to each tube and 500 μL of Glo Lysis Buffer—GLB (Promega, Madison WI) equilibrated to room temperature is added to liver tissue. Liver tissues were homogenized with the FastPrep24 instrument (MP Biomedicals) at 2×6.0 m/s for 15 seconds. Homogenate was incubated at room temperature for 5 minutes prior to a 1:4 dilution in GLB and assessed using SteadyGlo Luciferase assay system (Promega). Specifically, 50 μL of diluted tissue homogenate was reacted with 50 μL of SteadyGlo substrate, shaken for 10 seconds followed by 5 minute incubation and then quantitated using a CentroXS^3 LB 960 luminometer (Berthold Technologies, Germany). The amount of protein assayed was determined by using the BCA protein assay kit (Pierce, Rockford IL). Relative luminescence units (RLU) were then normalized to total μg protein assayed. To convert RLU to ng luciferase a standard curve was generated with QuantiLum Recombinant Luciferase (Promega).
The FLuc mRNA (L-6107 or L-7202) from Trilink Biotechnologies will express a luciferase protein, originally isolated from the firefly, Photimus pyralis. FLuc is commonly used in mammalian cell culture to measure both gene expression and cell viability. It emits bioluminescence in the presence of the substrate, luciferin. This capped and poly-adenylated mRNA was fully substituted with respect to uridine and/or cytidine nucleosides.
Representative compounds of the disclosure shown in Table 2 were formulated using the following molar ratio: 50% cationic lipid/10% distearoylphosphatidylcholine (DSPC)/38.5% Cholesterol/1.5% PEG lipid 2-[2-(ω-methoxy(polyethyleneglycol2000)ethoxy]-N,N-ditetradecylacetamide) or 47.5% cationic lipid/10% DSPC/40.7% Cholesterol/1.8% PEG lipid. Relative activity was determined by measuring luciferase expression in the liver 4 hours following administration via tail vein injection as described in Example 1. The activity was compared at a dose of 1.0 or 0.5 or 0.3 mg mRNA/kg and expressed as ng luciferase/g liver measured 4 hours after administration, as described in Example 1. Compound numbers in Table 2 refer to the compound numbers of Table 1. […]

[2] = Determination of pKa of formulated lipids (TNS fluorescence assay in lipid nanoparticles); type: physicochemical; conditions: probe 2-(p-toluidino)-6-napthalene sulfonic acid (TNS), 1 µM final, cationic lipid formulated in lipid nanoparticles (cationic lipid/DSPC/cholesterol/PEG-lipid 47.5/10/40.7/1.8 mol %), read-out: pKa
Experimental: As described elsewhere, the pKa of formulated cationic lipids is correlated with the effectiveness of LNPs for delivery of nucleic acids (see Jayaraman et al, Angewandte Chemie, International Edition (2012), 51(34), 8529-8533; Semple et al, Nature Biotechnology 28, 172-176 (2010)). The preferred range of pKa is ˜5 to ˜7. The pKa of each cationic lipid was determined in lipid nanoparticles using an assay based on fluorescence of 2-(p-toluidino)-6-napthalene sulfonic acid (TNS). Lipid nanoparticles comprising cationic lipid/DSPC/cholesterol/PEG-lipid (47.5/10/40.7/1.8 mol %) in PBS at a concentration of 0.4 mM total lipid were prepared using the in-line process as described in Example 1. TNS was prepared as a 100 μM stock solution in distilled water. Vesicles were diluted to 24 μM lipid in 2 mL of buffered solutions containing, 10 mM HEPES, 10 mM MES, 10 mM ammonium acetate, 130 mM NaCl, where the pH ranged from 2.5 to 11. An aliquot of the TNS solution was added to give a final concentration of 1 μM and following vortex mixing fluorescence intensity was measured at room temperature in a SLM Aminco Series 2 Luminescence Spectrophotometer using excitation and emission wavelengths of 321 nm and 445 nm. A sigmoidal best fit analysis was applied to the fluorescence data and the pKa was measured as the pH giving rise to half-maximal fluorescence intensity.

| pKa [2] | SMILES | Liver Luc (ng luc/g liver), determined at 0.3 mg/kg [1] | efficacy toward activation of the Luciferase mRNA expression as compared with non-fluorinated analogue [1] | Liver Luc (ng luc/g liver), determined at 1.0 mg/kg [1] [ng luc/g liver] | Liver Luc @ 0.5 mg/kg (ng luc/g liver) [1] [ng luc/g liver] |
| --- | --- | --- | --- | --- | --- |
| 6.22 | CCCCCCCCC(CCCCCC)COC(=O)CCCCCC(CCCCCC(=O)OCC(CCCCCC)CCCCCCCC)N(CCCN(C)C)C(=O)CC(F)(F)F (centres unmarked) [Compound I-12, BIS(2-HEXYLDECYL) 7-(N-(3-(DIMETHYLAMINO)PROPYL)-3,3,3-TRIFLUOROPROPANAMIDO)TRIDECANEDIOATE] | 138 ± 64* ng luc/g liver |  | 559 ± 207 |  |
| 6.68 | CCCCCCCCC(CCCCCC)COC(=O)CCCCCC(CCCCCC(=O)OCC(CCCCCC)CCCCCCCC)N(CCCN(C)C)C(=O)CCCC(F)(F)F (centres unmarked) [Compound I-13, BIS(2-HEXYLDECYL) 7-(N-(3-(DIMETHYLAMINO)PROPYL)-5,5,5-TRIFLUOROPENTANAMIDO)TRIDECANEDIOATE] |  |  |  | 658 ± 262 |
| 6.28 | CCCCCCCCC(CCCCCC)COC(=O)CCCCCCCCC(CCCCCCCCC(=O)OCC(CCCCCC)CCCCCCCC)N(CCCN(C)C)C(=O)CCCC(F)(F)F (centres unmarked) [Compound I-14, BIS(2-HEXYLDECYL) 10-(N-(3-(DIMETHYLAMINO)PROPYL)-5,5,5-TRIFLUOROPENTANAMIDO)NONADECANEDIOATE] |  |  |  | 331 ± 127 |
| 6.78 | CCCCCCC(CCCC)COC(=O)CCCCCC(CCCCCC(=O)OCC(CCCC)CCCCCC)N(CCCN(C)C)C(=O)CCCC(F)(F)F (centres unmarked) [Compound I-15, BIS(2-BUTYLOCTYL) 7-(N-(3-(DIMETHYLAMINO)PROPYL)-5,5,5-TRIFLUOROPENTANAMIDO)TRIDECANEDIOATE] |  |  |  | 1007 ± 671 |
| 5.97 | CCCCCCC(CCCC)COC(=O)CCCCCC(CCCCCC(=O)OCC(CCCC)CCCCCC)N(CCN(C)C)C(=O)CCCC(F)(F)F (centres unmarked) [Compound I-16, BIS(2-BUTYLOCTYL) 7-(N-(2-(DIMETHYLAMINO)ETHYL)-5,5,5-TRIFLUOROPENTANAMIDO)TRIDECANEDIOATE] |  |  |  | 1233 ± 305 |
| 5.96 | CCCCCCCC(F)C(=O)N(CCCN1CCCC1)C(CCCCCCCCC(=O)OCC(CCCC)CCCCCC)CCCCCCCCC(=O)OCC(CCCC)CCCCCC (centres unmarked) [Compound I-22, BIS(2-BUTYLOCTYL) 10-(2-FLUORO-N-(3-(PYRROLIDIN-1-YL)PROPYL)NONANAMIDO)NONADECANEDIOATE] | 10062 ± 2580 ng luc/g liver |  | 82847 ± 27713 |  |
| 6.04 | CCCCCCCCCCN(C(=O)C(F)CCCN(C)C)C(CCCCCCCCC(=O)OCC(CCCC)CCCCCC)CCCCCCCCC(=O)OCC(CCCC)CCCCCC (centres unmarked) [Compound I-24, BIS(2-BUTYLOCTYL) 10-(N-DECYL-5-(DIMETHYLAMINO)-2-FLUOROPENTANAMIDO)NONADECANEDIOATE] | 9411 ± 1733 ng luc/g liver |  |  |  |

| SMILES | pKa [2] | Liver Luc (ng luc/g liver), determined at 0.3 mg/kg [1] | efficacy toward activation of the Luciferase mRNA expression as compared with non-fluorinated analogue [1] | Liver Luc (ng luc/g liver), determined at 1.0 mg/kg [1] [ng luc/g liver] | Liver Luc @ 0.5 mg/kg (ng luc/g liver) [1] [ng luc/g liver] |
| --- | --- | --- | --- | --- | --- |
| CCCCC(CC)COC(=O)CCCCCCCCC(CCCCCCCCC(=O)OCC(CC)CCCC)N(CCCCN(C)C)C(=O)C(F)(F)C(F)(F)C(F)(F)C(F)(F)C(F)(F)C(F)(F)C(F)(F)F (centres unmarked) [Compound I-5, BIS(2-ETHYLHEXYL) 10-(N-(4-(DIMETHYLAMINO)BUTYL)-2,2,3,3,4,4,5,5,6,6,7,7,8,8,8-PENTADECAFLUOROOCTANAMIDO)NONADECANEDIOATE] | 5.92 | 3645 ± 1347 ng luc/g liver | increased efficacy | 21585 ± 6204 |  |
| CCCCCCCCC(CCCCCC)COC(=O)CCCCCC(CCCCCC(=O)OCC(CCCCCC)CCCCCCCC)N(CCCCN(C)C)C(=O)C(F)(F)C(F)(F)C(F)(F)C(F)(F)C(F)(F)C(F)(F)C(F)(F)F (centres unmarked) [Compound I-7, BIS(2-HEXYLDECYL) 7-(N-(4-(DIMETHYLAMINO)BUTYL)-2,2,3,3,4,4,5,5,6,6,7,7,8,8,8-PENTADECAFLUOROOCTANAMIDO)TRIDECANEDIOATE] | 6.08 |  |  |  | 39 ± 14 |
| CCCCCCCCC(CCCCCC)COC(=O)CCCCCC(CCCCCC(=O)OCC(CCCCCC)CCCCCCCC)N(CCN1CCN(C)CC1)C(=O)C(F)(F)C(F)(F)C(F)(F)C(F)(F)C(F)(F)C(F)(F)C(F)(F)F (centres unmarked) [Compound I-8, BIS(2-HEXYLDECYL) 7-(2,2,3,3,4,4,5,5,6,6,7,7,8,8,8-PENTADECAFLUORO-N-(2-(4-METHYLPIPERAZIN-1-YL)ETHYL)OCTANAMIDO)TRIDECANEDIOATE] | 5.58 |  |  |  | 0 |
| CCCCCCCCC(CCCCCC)COC(=O)CCCCCC(CCCCCC(=O)OCC(CCCCCC)CCCCCCCC)N(CCCCCN(C)C)C(=O)C(F)(F)C(F)(F)C(F)(F)C(F)(F)C(F)(F)C(F)(F)C(F)(F)F (centres unmarked) [Compound I-9, BIS(2-HEXYLDECYL) 7-(N-(5-(DIMETHYLAMINO)PENTYL)-2,2,3,3,4,4,5,5,6,6,7,7,8,8,8-PENTADECAFLUOROOCTANAMIDO)TRIDECANEDIOATE] | 6.32 |  |  |  | 25 ± 16 |
| CCCCCCC(CCCC)COC(=O)CCCCCC(CCCCCC(=O)OCC(CCCC)CCCCCC)N(CCCCN(C)C)C(=O)C(F)(F)C(F)(F)C(F)(F)C(F)(F)C(F)(F)C(F)(F)C(F)(F)F (centres unmarked) [Compound I-10, BIS(2-BUTYLOCTYL) 7-(N-(4-(DIMETHYLAMINO)BUTYL)-2,2,3,3,4,4,5,5,6,6,7,7,8,8,8-PENTADECAFLUOROOCTANAMIDO)TRIDECANEDIOATE] | 6.18 |  |  |  | 62 ± 44 |
| CCCCCCC(CCCC)COC(=O)CCCCCC(CCCCCC(=O)OCC(CCCC)CCCCCC)N(CCCCCN(C)C)C(=O)C(F)(F)C(F)(F)C(F)(F)C(F)(F)C(F)(F)C(F)(F)C(F)(F)F (centres unmarked) [Compound I-11, BIS(2-BUTYLOCTYL) 7-(N-(5-(DIMETHYLAMINO)PENTYL)-2,2,3,3,4,4,5,5,6,6,7,7,8,8,8-PENTADECAFLUOROOCTANAMIDO)TRIDECANEDIOATE] | 6.28 | 3411 ± 803* ng luc/g liver | increased efficacy | 45575 ± 11088 |  |
